Data: EP1856102B1, “MEDICAMENTS FOR ALZHEIMER” (Tseti, Ioulia, priority 2005, dated 2006)
Marks after values point to notes of the source that are not given here.

Assays:
[1] = system: FCA-induced experimental arthritis in rats; test: Adjuvant-induced disease (FCA-induced experimental arthritis); assay type: in vivo, female Fischer-344 rats; conditions: 0.3-0.6 mmol/kg i.p. once daily for 14 days; in comparison to non treated AID rats
Procedure: Adjuvant-induced disease (AID) was induced via i.d. injection of Freund's complete adjuvant (0.1 ml of FCA) in the foot pad of the right hind paw of female Fischer-344 rats. The compounds under study were dissolved or suspended in water containing a few drops of Tween 80 and were administered i.p. (0.3-0.6 mmol/kg) once daily for 14 days. In order to observe the progress of local inflammatory reaction, the change in swelling of paw with adjuvant treatment was evaluated by allocation of points (inflammatory score) on an arbitrary scale, while for the quantification of arthritis the arthritic score was recorded.
Table 2: Effect of the test compounds on FCA-induced experimental arthritis in rats

female Fischer-344 rats = conditions: s.c. once daily for 4 days, dose 84 µM/kg (Indomethacin, 1, 2, 3) or 1350 µM/kg (Naproxen, 4, 5); for Perforating ulcers (%): % of animals which developed perforating ulcers; for Mortality (%): (dead/total) x 100, recorded 24 h after last treatment
Procedure: Equimolar doses of the parent NSAIDs and the respective derivatives were administered s.c. once daily for 4 days to female Fischer-344 rats (160-180g). The used dose was ca LD50 of the parent NSAID. The incidence of perforating gastrointestinal ulcers, body weight change, melena and mortality were recorded 24 h after the last treatment. […] Table 3: Gastrointestinal toxicity of indomethacin, naproxen and some novel derivatives in rats

[2] = system: carrageenan-induced edema of the rat hind paw; test: Carrageenan-induced edema of the rat hind paw; assay type: in vivo, female Fischer-344 rats; conditions: 0.3mmol/kg i.p. immediately after carrageenan; paws weighed 3.5 h later; edema suppression in comparison to controls
Procedure: Edema was induced via i.d. injection of carrageenan (0.1 ml of a 2% w/v aqueous solution) into the right hind paw of female Fischer-344 rats (200-220g) (the left paw serving as control). The compounds under study were dissolved or suspended in water containing a few drops of Tween 80 and were administered i.p. (0.3mmol/kg) immediately after the carrageenan injection. The mice were euthanazed 3.5 h later, both hind paws were severed above the ankle joint and weighted separately. For each animal the swelling caused by the phlogistic was given as percentage of weight increase of right hind paw in comparison to the uninjected left hind paw, and from that, the percentage of edema suppression in comparison to controls was calculated. The parent anti-inflammatory acids (at the same molar concentrations) were used as reference compounds, in addition to the absolute control. […] Table 1: Effect of the test compounds on carrageenan-induced edema of the rat hind paw

[3] = system: lipid peroxidation of hepatic microsomal fraction; test: In vitro lipid peroxidation (TBA reactive material); assay type: biochemical, Fischer-344 rats; conditions: at 45 min, 37°C; heat inactivated rat hepatic microsomal fraction, FeSO4/ascorbic acid
Procedure: Hepatic microsomal fraction from untreated Fischer-344 rats was prepared. The incubation mixture contained heat inactivated (90°C for 90 sec) hepatic microsomal fraction, corresponding to 2.5 mg protein/ml (fmal concentration) or 4 mmol/L fatty acid residues, ascorbic acid (0.2 mmol/L) in Tris-HCl/KCl buffer (50 mmol/L / 150mmol/L, pH 7.4) and various concentrations (1-0.05 mmol/L) of the test compounds dissolved in dimethylsulfoxide (DMSO). The reaction was started by the addition of a freshly prepared FeSO4 solution (10 µM/L) and the mixture was incubated at 37°C for 45 min. Aliquots (0.3mL) from the incubation mixture were taken at various time intervals. Lipid peroxidation was assessed spectrophotometrically (535 against 600 nm) by the determination of the TBA reactive material. Under the above experimental conditions, all compounds, as well as DMSO, were tested and found not to interfere with the assay. Each experiment was performed at least in triplicate.

[4] = Interaction with the stable free radical DPPH; conditions: DPPH 0.2 mmol/L in ethanol, room temperature, 45 min
Procedure: The test compounds were dissolved in absolute ethanol (analytical grade, iron content was less than 10^-3 (w/v), added to an equal volume of an ethanolic solution of DPPH (final concentration 0.2 mmol/L) at various concentrations (0.1 and 0.2 mmol/L) and kept at room temperature. Absorbance (517 nm) was recorded at 45 min. Each experiment was performed at least in triplicate. Table 5: % Interaction of the test compounds with the stable free radical DPPH

[5] = system: tyloxapol-induced hyperlipidemia; test: Tyloxapol-induced hyperlipidemia in rats; assay type: in vivo; conditions: 56µmol/kg i.p. once, 24 h later, tyloxapol 200 mg/kg i.p.; for % decrease LDL: plasma LDL-cholesterol; for % decrease TC: plasma total cholesterol; for % decrease TG: plasma triglyceride
Procedure: The hypocholesterolemic and hypolipidemic activity of the test compounds was assessed in vivo by the inhibition of tyloxapol-induced hyperlipidemia (200 mg/kg i.p.) in rats. The novel NSAID derivatives were administered (56µmol/kg, i.p., once) to hypercholesterolemic rats and 24 h later the plasma total cholesterol (TC), LDL and triglyceride (TG) concentrations were determined in blood taken from the aorta. […] Table 6: Effect of the test compounds on plasma total cholesterol, triglyceride and LDL-cholesterol levels of hyperlipidemic rats

Structure (SMILES) | % Inhibition of experimental arthritis [1] | Perforating ulcers (%) (female Fischer-344 rats) | Mortality (%) (female Fischer-344 rats) | Body weight change (female Fischer-344 rats) | % Edema inhibition [2] | IC50 [3] | % Interaction with the stable free radical DPPH ([4]; compound 0.2mM) | % Interaction with the stable free radical DPPH ([4]; compound 0.1mm) | % decrease LDL [5] | % decrease TC [5] | % decrease TG [5]
COc1ccc2c(c1)c(CC(=O)N1CCCC1C(=O)NCCS)c(C)n2C(=O)c1ccc(Cl)cc1 (stereo not drawn) [Compound 1, 1-{2-[1-(4-Chloro-benzoyl)-5-methoxy-2-methyl-1-H-indol-3-yl]-acetyl}-pyrrolydine-2-carboxylic acid (2-mercapto-ethyl) amide] | 50% | 0% | 0% | +1.3 g/100 body weight | 23% |  |  |  |  |  | 
CCOC(=O)C(CS)NC(=O)C1CCCN1C(=O)Cc1c(C)n(C(=O)c2ccc(Cl)cc2)c2ccc(OC)cc12 (stereo not drawn) [Compound 2, 2-[(1-{2-[1-(4-Chloro-benzoyl)-5-methoxy-2-methyl-1-H-indol-3-yl]-acetyl}-pyrrolidine-2-carbonyl)-amino]-3-mercapto-propionic acid ethyl ester] | 75% | 0% | 0% | +3.9 g/100 body weight | 20% | 390 µM | 70% | 44% |  |  | 
COc1ccc2c(c1)c(CC(=O)N1CCCC1C(=O)Oc1ccc(C)cc1OC)c(C)n2C(=O)c1ccc(Cl)cc1 (stereo not drawn) [Compound 3, 1-{2-[1-(4-Chloro-benzoyl)-5-methoxy-2-methyl-1-H-indol-3-yl]-acetyl}-pyrrolidine-2-carboxylic acid-2-methoxy-4-methyl-phenyl ester] |  | 0% | 0% | +11.1 g/100 body weight |  |  |  |  |  |  | 
COc1ccc2cc(C(C)C(=O)N3CCCC3C(=O)NCCS)ccc2c1 (stereo not drawn) [Compound 4, 1-[2-(6-methoxy-naphthalen-2-yl)-propionyl]-pyrrolidine-2-carboxylic acid-(2-mercapto-ethyl) amide] | 30% |  |  |  | 30% |  | 78% | 57% |  |  | 
CCOC(=O)C(CS)NC(=O)C1CCCN1C(=O)C(C)c1ccc2cc(OC)ccc2c1 (stereo not drawn) [Compound 5] | 100% | 0% | 0% | +1.5 g/100 body weight | 30% | 320 µM | 85% | 65% | 55* % | 58** % | 68.7** %
COc1ccc2cc(C(C)C(=O)N3CCCC3C(=O)Oc3ccc(C)cc3OC)ccc2c1 (stereo not drawn) [Compound 6, 1-[2-(6-methoxy-naphthalen-2-yl)-propionyl]-pyrrolidine-2-carboxylic acid 2-methoxy-4-methyl phenyl ester] |  |  |  |  | 20% |  |  |  |  |  | 
COc1ccc2cc(C(C)C(=O)N3CC(O)CC3C(=O)NCCS)ccc2c1 (stereo not drawn) [Compound 7, 4-Hydroxy-1-[2-(6-methoxy-naphthalen-2-yl)-propionyl]-pyrrolidine-2-carboxylic acid-(2-mercapto-ethyl) amide] |  |  |  |  | 31% |  | 56% | 34% | 53.5 * % | 45* % | 51%
CCOC(=O)C(CS)NC(=O)C1CC(O)CN1C(=O)C(C)c1ccc2cc(OC)ccc2c1 (stereo not drawn) [Compound 8] |  |  |  |  |  | 500 µM | 75% | 55% | 56.5* % | 35.5% | 25%
CCOC(=O)C(CS)NC(=O)C1CCCCN1C(=O)C(C)c1ccc2cc(OC)ccc2c1 (stereo not drawn) [Compound 9] |  |  |  |  |  | 122 µM | 76% | 46% | 52* % | 40% | 21.3%
COc1ccc2c(c1)c(CC(=O)O)c(C)n2C(=O)c1ccc(Cl)cc1 [Indomethacin, reference compound] |  |  | 50% |  | 47.8% |  |  |  |  |  | 
COc1ccc2cc([C@H](C)C(=O)O)ccc2c1 [Naproxen, reference compound] |  |  | 50% |  | 45% |  |  |  |  |  | 
